Results from patent publication US20250002840A1, “MANUFACTURING METHOD OF MIXED POWDER, MIXED POWDER, POWDER, AND POWDER MEDIUM” (FUJIFILM Corporation, priority 2022, published 2025).

Tests used:
[1] = Liquid property (pH) of the solution obtained in the solubility evaluation; format: physicochemical
Method: A pH of the solution obtained in the evaluation of solubility was evaluated. Liquid property was evaluated according to the following evaluation standard.

[2] = Overall evaluation based on solubility and liquid property; format: physicochemical; conditions: based on the evaluation results of solubility and liquid property

Liquid property [1]: Neutral (pH of 6.0 to 8.5)
SMILES: N[C@@H](CSSC[C@H](N)C(=O)O)C(=O)O [Comparative Example 1, L-cystine]
Overall evaluation [2]: E (the solution was still turbid even after 1 hour, and/or the pH was other than neutral)
